Reference: patent US20050265944A1, “Carbohydrate-based anti-wrinkle and tissue remodelling compounds” (Ultraceuticals R&D Limited, priority 2002, published 2005)

What was measured:
skin of normal rats = experiment: Intradermal injection, cell migration / cellularity at the site of administration (histology); assay type: in vivo, female Fischer rats; conditions: 50 microlitre intradermal, 48 hours; for cellularity at the site of injection: versus saline
Experimental: The effects of intradermally injected glucose, maltose and maltopentaose on cell migration into the site of administration in the skin of normal rats. Healthy, specific pathogen free female Fischer rats 10-12 weeks of age (n=3) were anesthetised with ether and hair on their backs was clipped (electric miniclippers) from two areas of approximately 1.5 cm×4 cm either side of and paralleling the spinal column. The test and control substances were injected into the centre of 1 square cm defined areas. Substances were administered in such a fashion that each was injected into 4 different positions at least once in order to control for any possible anatomical positioning effect. Agents were dissolved in normal saline at a concentration of 100 mg/ml and sterile filtered prior to administration. Fifty microlitre injection volumes were given intradermally using 30 gauge needles and control injections consisted of 50 microlitres of sterile normal saline. Animals were sacrificed 48 hours following injection and injection sites were subjected to histological sectioning followed by microscopic examination.
(§1) The effects of intradermally injected dextran and maltopentaose on cell migration into the site of administration in the skin of normal rats. In a similar experiment to that outlined in Example 1 above, female Fischer rats, 10-12 weeks of age (n=3) were treated with 50 microlitre volumes of i) 50 mg/ml of clinical grade dextran (MW 71,400); ii) 50 mg/ml maltopentaose; or iii) normal saline using a 30 gauge needle. Skin injection sites were submitted for histological sectioning and examined microscopically 48 hours following injection.
as §1, with “injected maltotriose” for “injected dextran”, “age (n=2)” for “age (n=3)”, “i) 100” for “i) 50”, “of maltotriose;” for “of clinical grade dextran (MW 71,400);”, “ii) 100” for “ii) 50”
(§2) The effects of intradermally injected maltopentaose and 1,4-beta-mannohexaose on cell migration into the site of administration in the skin of normal rats. In a similar experiment to that outlined in Example 1 above, female Fischer rats, 10-12 weeks of age (n=2) were treated with 50 microlitre volumes of i) 100 mg/ml of maltopentaose; ii) 100 mg/ml of 1,4-beta-mannohexaose; or iii) normal saline using a 30 gauge needle. Skin injection sites were submitted for histological sectioning and examined microscopically 48 hours following injection.
as §2, with “amylose” for “maltopentaose”, “the O-phosphorylated mannan isolated from Pichia holstii” for “1,4-beta-mannohexaose”, “50” for “100”, “amylose;” for “maltopentaose;”, “the O-phosphorylated mannan from Pichia holstii;” for “1,4-beta-mannohexaose;”, “injection. […]” for “injection.”

cutaneous tissue = experiment: Dermal application: cellularity and collagen deposition in cutaneous tissue (general statements); assay type: in vivo; conditions: general statement in the description
[1] = tested on: skin (dermis) fibroblasts; experiment: Intradermal injection into abdominal skin, cellularity, collagen (Gomori's stain) and fibroblasts (prolyl 4-hydroxylase immunohistochemistry); assay type: in vivo, female Wistar rats; conditions: Example 7, 50 mg/ml in sterile saline, 50 microliters intradermal; for dermal collagen (Gomori's staining) / fibroblast-like cells / cellular infiltrate in the dermis: 48 hours and 7 days; for fibroblast-like cells / cellular infiltrate in the dermis: H&E
Experimental: Following ether anaesthesia, hair was clipped from skin on both sides of the abdominal region of 8-10 week old female Wistar rats. Intradermal injections (via a 30 gauge needle) of either sterile saline (50 microliters), PM5 (50 microliters, 50 mg/ml in sterile saline) or amylopectin (50 microliters, 50 mg/ml in sterile saline) were placed in the centre of 1 cm^2 defined areas of abdominal skin. Forty-eight hours and 7 days after injection, groups of animals were euthanased by CO2 overdose and skin samples were examined following the preparation of 6 μm histological sections that were stained with H&E and Gomori's (collagen) stain. In addition, immunohistochemistry using a mouse anti-rat prolyl 4-hydroxylase monoclonal antibody (Chemicon International Inc) in paraffin embedded skin sections was used to identify fibroblasts within the dermis.

[2] = Example 1, 100 mg/ml in normal saline

Molecule: OC[C@H]1O[C@@H](O[C@H]2[C@H](O)[C@H](O)[C@H](O[C@H]3[C@H](O)[C@H](O)[C@H](O[C@H]4[C@H](O)[C@H](O)[C@H](O[C@H]5[C@H](O)[C@H](O)[C@H](O[C@H]6[C@H](O)[C@H](O)C(O)O[C@@H]6CO)O[C@@H]5CO)O[C@@H]4CO)O[C@@H]3CO)O[C@@H]2CO)[C@@H](O)[C@@H](O)[C@@H]1O (stereo partly drawn) [1,4-beta-mannohexaose]
- cellularity, 1,4-beta-mannohexaose injection sites versus maltopentaose sites (skin of normal rats; Example 4, 100 mg/ml): the results were not significantly different
- cellularity at the site of injection (skin of normal rats; Example 4, 100 mg/ml): increases in cellularity
- increase in cellularity and collagen deposition in cutaneous tissue / tissue remodelling effect (cutaneous tissue): effective tissue remodelling agents and effective anti-wrinkle compounds

Molecule: amylopectin
- fibroblast numbers (immunohistochemical staining, anti-rat prolyl 4-hydroxylase) [1]: influx of fibroblastoid cells
- dermal collagen (Gomori's staining) [1]: increase in dermal collagen
- fibroblast-like cells / cellular infiltrate in the dermis [1]: marked “fibroblast-like” cellular infiltrate in both the upper and lower regions of the dermis
- fibroblast numbers (immunohistochemical staining, anti-rat prolyl 4-hydroxylase) ([1]; listed as Amylopectin): increase in dermal collagen (as indicated Gomori's staining) (FIG. 3), and fibroblast numbers
- increase in cellularity and collagen deposition in cutaneous tissue / tissue remodelling effect (cutaneous tissue): particularly effective in this regard

Molecule: dextran [reference compound]
- cellularity at the site of injection (skin of normal rats; Example 2, 50 mg/ml): increased cellularity was noticed in the dextran injection sites but this was not statistically significantly different from the saline injected sites

Molecule: maltoheptaose
- increase in cellularity and collagen deposition in cutaneous tissue / tissue remodelling effect (cutaneous tissue): effective tissue remodelling agents and effective anti-wrinkle compounds

Molecule: OC[C@H]1O[C@H](O[C@H]2[C@H](O)[C@@H](O)C(O)O[C@@H]2CO)[C@H](O)[C@@H](O)[C@@H]1O (mixture of isomers) [maltose, reference compound]
- cellularity at the site of injection (skin of normal rats; [2]): neither saline, glucose nor maltose had any effect on cellularity

Molecule: maltohexaose
- increase in cellularity and collagen deposition in cutaneous tissue / tissue remodelling effect (cutaneous tissue): effective tissue remodelling agents and effective anti-wrinkle compounds

Molecule: amylose
- cellularity at the site of injection (skin of normal rats; Example 5, 50 mg/ml): increases in cellularity

Molecule: maltopentaose
- cellularity at the site of injection (skin of normal rats; [2]): significant increase in cellularity (P=0.001) versus saline
- cellularity at the site of injection (skin of normal rats; Example 2, 50 mg/ml): clear and significant difference in cellularity versus saline
- cellularity at the site of injection (skin of normal rats; Example 3, 100 mg/ml): clear and significant difference in cellularity versus saline
- cellularity at the site of injection (skin of normal rats; Example 4, 100 mg/ml): increases in cellularity
- increase in cellularity and collagen deposition in cutaneous tissue / tissue remodelling effect (cutaneous tissue): effective tissue remodelling agents and effective anti-wrinkle compounds

Molecule: OC[C@H]1O[C@@H](O[C@H]2[C@H](O)[C@H](O)[C@H](O[C@H]3[C@H](O)[C@H](O)[C@H](O[C@H]4[C@H](O)[C@H](O)[C@H](O[C@H]5[C@H](O)[C@H](O)C(O)O[C@@H]5CO)O[C@@H]4CO)O[C@@H]3CO)O[C@@H]2CO)[C@@H](O)[C@@H](O)[C@@H]1O (stereo partly drawn) [1,4-beta-D-mannopentaose]
- increase in cellularity and collagen deposition in cutaneous tissue / tissue remodelling effect (cutaneous tissue): effective tissue remodelling agents and effective anti-wrinkle compounds

Molecule: maltotriose [reference compound]
- cellularity at the site of injection (skin of normal rats; Example 3, 100 mg/ml): no increase in cellularity

Molecule: O=P(O)(O)OC[C@H]1O[C@H](O[C@@H]2[C@H](O)[C@@H](O[C@@H]3[C@H](O)[C@@H](O[C@@H]4[C@H](O)[C@@H](O[C@H]5[C@@H](O)[C@H](O)[C@@H](CO)O[C@@H]5O)O[C@H](CO)[C@H]4O)O[C@H](CO)[C@H]3O)O[C@H](CO)[C@H]2O)[C@@H](O)[C@@H](O)[C@@H]1O [PM5, 6-O-phospho-alpha-D-mannose-(1,3)-alpha-D-mannose-(1,3)-alpha-D-mannose-(1,3)-alpha-D-mannose-(1,2)-alpha-D-mannose]
- dermal collagen (Gomori's staining) [1]: collagen deposited in the lower dermal layers
- fibroblast-like cells / cellular infiltrate in the dermis [1]: increase in fibroblast-like cells
- increase in cellularity and collagen deposition in cutaneous tissue / tissue remodelling effect (cutaneous tissue): effective tissue remodelling agents and effective anti-wrinkle compounds
